Experimental data taken from patent US12582720B2, “Compound for preventing or treating lipid metabolism-related diseases” (Fudan University, priority 2020, dated 2026).

Legend:
NASH mice = assay: Effect of the compound on NASH mouse model (CDAHFD); type: in vivo
Procedure: 15-micrometer cryosections were obtained from the liver (see “BODIPY staining of tissues” and processed for visualization of fibrosis by picro-sirius red staining as described in the literature (Sookoian S et al., Fatty Liver Disease Progresses into Severe NASH when Physiological Mechanisms of Tissue Homeostasis Collapse. Ann Hepatol 2018; 17:182-186.). The liver cryosections were washed with 1×PBS and then incubated at room temperature for 1 hour with the solution containing 0.1% vol/vol Direct Red 80 Direct Red 80 (for staining collagen in red as an indicator for liver fibrosis) and 0.04% Fast Green (Sigma-Aldrich, cat. no. F7258, for general protein staining as a background) in saturated aqueous solution of picric acid (Sigma., cat. no. P6744-1GA). The samples were imaged by using an Olympus inverted fluorescence microscope IX73, and the histological fibrosis images were analyzed by the imageJ software.
Experimental animals: ten-week-old C57BL/6 male mice were obtained from Hangzhou Ziyuan Inc. The mice had ad libitum access to water and a choline-deficient, L-amino acid-defined, high-fat diet (CDAHFD) containing 60% kcal fat obtained from Changzhou Shuyishuer Inc. for twelve weeks (including the two-week compound-injection period) to generate the non-alcoholic steatohepatitis (NASH) models.
(§1) Mice were randomly divided into 7 groups, wherein 8 mice in each group, and the mice in each group were subjected to intraperitoneal injection to administer: (1) only vehicle (no DMSO) group: 0% DMSO+39% PEG300 (Selleck, cat. no. S6704)+5% Tween-80 (Selleck, cat. no. S6702)+56% distilled water, (2) DMSO group: 1% DMSO+39% PEG300+5% Tween-80+55% H2O (DMSO vehicle), (3) C3 group: Compound 3A was in DMSO vehicle, (4) C4 group: Compound 4A in DMSO vehicle, (5) SIII group: Sudan III DMSO vehicle, (6) GW5074 group: Compound A1 in DMSO vehicle, (7) DP group: Compound A5 in DMSO vehicle. For groups (3)-(7), the compound (30 mg/kg, administration volume 150 μL) was administered through intraperitoneally injection for consecutive 2 weeks, and once a day. The food and water intake were measured with an analytical electronic balance.
(§2) 24 hours after the time point of the last injection, end point maxillary surface blood sampling was performed on each mouse. All mice were Euthanized by cervical dislocation, and then tissue sample (e.g., liver samples) were obtained and stored in Eppendorf tubes at −80° C. for assay.
(§3) 12 days after initiation of administration, each mouse was scanned by a minispec nuclear magnetic resonance (NMR) instrument (Bruker LF50 II “Minispec” body composition analyzer, Bruker Optics) that was designed for experimental animals, and based on the measurement of solid and liquid parts of the samples, the body fat and lean body weight were determined by this device.
(§4) Serum: Tail vein blood samples (30-50 μL) were left to coagulate in […] blood collection tubes (Jiangsu Kangjian Medical Products Co., Ltd., model KJ002) at room temperature without interference, and then centrifuged at 2,000×g for 10 minutes at 4° C. to remove the clot. Supernatant was collected to obtain the serum.
(§5) Liver: Liver samples were obtained as described in (2). 100 mg of liver tissue was homogenized in 0.9 mL of absolute alcohol under ice-cold conditions, and then centrifuged (2,500 r.p.m/min, 10 min). Supernatant was collected, and then stored at −80° C.
(§6) The kits were used according to the instruction from manufacturer (TAG: TG kit, cat. no. A110-1-1; TC: T-CHO kit, cat. no. A111-1. FFA: NEFA kit, cat. No. A042-2-1; they were all from Nanjing Jiancheng Bioengineering Institute). TAG, TC and FFA levels in serum and liver samples were determined.

[1] = test system: lipid droplets in LC3B knockout HEK293T cells; assay: Lipid droplets in LC3B knockout HEK293T cells; type: cell-based, human; details: 5 μM
Procedure: The effect of conjugated compounds (Compound 1A, Compound 2A, Compound 3A or Compound 4A at a concentration of 5 μM) on lipid droplets in LC3B knockout HEK293T cells was tested by a method similar to Example 2.

db/db mice = assay: Effect of the compound on db/db mouse; type: in vivo
Description: Experimental animals: nineteen-week-old db/db male mice (C57BL/6J-Lepr^db/Lepr^db) were obtained from Shanghai Model Organisms Co., Ltd., and acclimatized for at least 1 week before experiments. The mice had ad libitum access to standard chow and water.
Normal control: The C57BL/6 male mice fed on standard irradiated chow diet (Shuyishuer Inc. cat. no. D12450J) from Changzhou Shuyishuer Biotechnology Co., Ltd. (Shuyishuer Inc.) were used as the normal control.
as §1
Bodyweight was weighed every day.
If time permitted, tail vein blood (30-50 μL) was collected every 1-3 days.
as §2, §3, §4, §5, §6
According to the lipidomic method as described above, the contents of liver total lipid, glycerolipid, sterol lipid, neutral sphingolipid and polar lipid were analyzed. The log 2-fold change (log2 FC) and statistical significance (p-value) relative to the DMSO group were calculated.

LC3B = LC3B (Homo sapiens, UniProt Q9GZQ8); assay: MST detection of affinity activity with LC3B; type: binding; design: His8 (with TEV site) (N); made in house; host or cells: Escherichia coli BL21(DE3)pLysS; details: MST; read-out: Kd (μM), equilibrium dissociation constant between the conjugated compound and LC3B
Procedure: The recombinant GST-LC3B proteins were prepared and purified, dialyzed into 1×PBS, and then labelled with the red fluorophore with the protein labeling kit RED-NHS (Nanotemper, cat. no. L001).
The MST experiments were performed using the Monolith NT.115 instrument (NanoTemper Technologies). The reaction buffer contains 20 mM HEPES, pH 7.4, 150 mM NaCl, and the protein concentration was 500 nM. The MST data were collected under 40% infrared laser power and 20% light-emitting diode power. The data were analyzed by Nanotemper software.

[2] = test system: lipid droplets in 3T3-L1 fat precursor cell differentiated fat cells; assay: Lipid droplets in 3T3-L1 fat precursor cell differentiated fat cells; type: cell-based, mouse; details: 3T3-L1 differentiated fat cells, 24 h
[3] = test system: autophagosome-lipid droplet colocalization in MEF cells; assay: Colocalization of autophagosome and lipid droplets in mCherry-LC3B transfected MEF cells; type: cell-based, mouse; details: 5 μM, 3 h, compared to DMSO control
Procedure: (1) In MEF cells, mCherry-LC3B was expressed by cDNA plasmid transfection.
(2) OA was added to the culture medium 30 hours after transfection to induce lipid droplets.
(3) Compounds were added to treat cells 6 hours after induction.
(4) 3 hours after compounds addition, cells were fixed and BODIPY stained.
(5) The coverslips laid in the multi-well plates were removed, and imaged with the Zeiss 880 confocal microscope after mounted to observe the aggregation of LC3 puncta around the lipid droplets.
In MEF cells, mCherry-LC3B was expressed by cDNA plasmid transfection. At 30th hour of overexpression, OA was added into cells for lipid droplet induction. 6 hours later, the compound was added for 3 hours' treatment, and then cells were subjected to immunostaining. […] Lipid droplets (green) were stained with BODIPY stain, and nucleus were indicated with DAPI stain. […] In FIG. 24, the colocalized autophagosome-lipid droplet was marked with circles.

Question: O=c1cc(-c2ccccc2)c2c(OCCCCCCCCCCOc3ccc4ccccc4c3/N=N/c3ccc(/N=N/c4ccccc4)cc3)cc(O)cc2o1 [Compound 4A, 7-hydroxy-4-phenyl-5-((10-((1-((E)-(4-((E)-phenyldiazenyl)phenyl)diazenyl)naphthalen-2-yl)oxy)decyl)oxy)-2H-chromen-2-one] was tested. Which liver weight (NASH mice; 30 mg/kg ip) did it give?
Answer: significantly reduced

Question: What about the “ratio of body fat/lean body weight” value (NASH mice; 30 mg/kg ip) of the same compound?
Answer: significantly reduced

Question: What about the “serum and liver TAG levels” value (NASH mice; 30 mg/kg ip) of the same compound?
Answer: reduced

Question: What about the “serum and liver TC levels” value (NASH mice; 30 mg/kg ip) of the same compound?
Answer: reduced

Question: And the body weight (NASH mice; 30 mg/kg ip once a day, 2 weeks)?
Answer: significantly reduced

Question: What about the liver lipid droplets (NASH mice; 30 mg/kg ip, 14 days) of the same compound?
Answer: significantly reduced

Question: What about the “degree of interstitial fibrosis in liver tissue (picro-sirius staining)” value (NASH mice; 30 mg/kg ip, 14 days, compared with control compound) of the same compound?
Answer: significantly reduced

Question: And the “reduction of lipid droplets induced by conjugated compounds after knockout of LC3B gene” value [1]?
Answer: largely blocked

Question: And the “body weight-normalized food intake” value (db/db mice)?
Answer: marginally significant increase

Question: And the “FFA levels in serum and liver” value (db/db mice; 30 mg/kg ip)?
Answer: significantly reduced

Question: What about the “body weight-normalized food and water intake” value (db/db mice; 30 mg/kg ip) of the same compound?
Answer: no significant reduction

Question: What about the “weight loss (total body weight)” value (db/db mice; 30 mg/kg ip once a day, within 2 weeks) of the same compound?
Answer: about 15%

Question: And the “ratio of body fat/lean body weight” value (db/db mice; 30 mg/kg ip, 12 days, vs DMSO group)?
Answer: significantly reduced

Question: And the “amount and size of liver lipid droplets (BODIPY493/503)” value (db/db mice; 30 mg/kg ip, 14 days)?
Answer: significantly reduced

Question: What about the liver weight (db/db mice; 30 mg/kg ip, 14 days, vs DMSO group) of the same compound?
Answer: significantly reduced

Question: And the “TAG levels in liver and serum” value (db/db mice; 30 mg/kg ip, vs DMSO group)?
Answer: significantly reduced

Question: What about the “TC levels in liver and serum” value (db/db mice; 30 mg/kg ip, vs DMSO group) of the same compound?
Answer: significantly reduced

Question: And the “reduction of liver total lipid concentration (liver lipid level)” value (db/db mice; absolute quantitative lipidomics, vs DMSO group)?
Answer: 41.5±13.9%

Question: And the TAG in liver (db/db mice; lipidomics)?
Answer: significantly reduced

Question: And the “most glycerolipids, sterol lipids and neutral sphingolipids in liver” value (db/db mice; lipidomics)?
Answer: reduced

Question: What about the “other major neutral lipids, cholesteryl ester (ChE) and diglyceride (DG) in liver” value (db/db mice; lipidomics) of the same compound?
Answer: slightly reduced

Question: What about the “polar lipids, e.g., glycerophospholipids in liver” value (db/db mice; lipidomics) of the same compound?
Answer: did not reduce

Question: What about the “PE and PI” value (db/db mice; liver lipidomics) of the same compound?
Answer: unaffected

Question: What about the “TAG and ChE with different chain carbon numbers or saturated bond numbers” value (db/db mice; liver lipidomics) of the same compound?
Answer: all reduced

Question: And the Kd (LC3B)?
Answer: 0.39 µM

Question: And the “effect of the compound on lipid droplets under the treatment of NH4Cl” value ([2]; 5 μM + NH4Cl 5 mM)?
Answer: blocked

Question: What about the “amount of lipid droplets” value ([2]; 5 μM) of the same compound?
Answer: could reduce

Question: What about the “size of lipid droplets” value ([2]; 5 μM) of the same compound?
Answer: could change

Question: What about the “ratio of colocalization of red and green aggregation point (autophagosome-lipid droplet)” value [3] of the same compound?
Answer: significantly increased
